Values quoted from earlier work as cited in article PMC9324670, “Pd(II) Binding Strength of a Novel Ambidentate Dipeptide-Hydroxypyridinonate Ligand: A Solution Equilibrium Study” (Molecules, 2022).

Columns and labels:
[1] = parameters: method as in doi:10.1016/S0020-1693(00)91874-7; details: fixed values used in the equilibrium models
[2] = pH-potentiometry

SMILES	logβ (stability constant of the complex in the Pd(II)–Cl^− system) [1]	pKOH(3) [2]
[Cl][Pd][Cl] [[PdCl2]]	7.76	–
Cc1c(O)c(=O)ccn1C [H(L4), 3-hydroxy-1,2-dimethylpyridin-4(1H)-one]	–	9.76

More lines, now with the values ahead:

logβ (stability constant of the complex in the Pd(II)–Cl^− system) [1]	pKOH(3) [2]	SMILES
11.56	–	[Cl][Pd-2]([Cl])([Cl])[Cl] [[PdCl4]^2−]
10.17	–	[Cl][Pd-]([Cl])[Cl] [[PdCl3]^−]
4.47	–	[Cl][Pd+] [[PdCl]^+]
